According to patent US20230265151A1, “GIP/GLP1 CO-AGONIST COMPOUNDS” (priority 2020, published 2023):
Like-named read-outs stand apart in the source and are kept apart here. *1 amine or outer side, *2 acyl side, *3 side chain or, on linkers, in order; H or OH if unused. Where a SMILES comes first, the peptide text is derived from it. Side-chain parts run from the residue outwards. [ ]: non-standard residue; d: D form. The star is where a group is joined. Decanoyl(10-(4-HOOC-PhO)) = O=C(O)c1ccc(OCCCCCCCCCC(=O)*)cc1; αMePhe(2-F) = C[C@](N)(Cc1ccccc1F)C(=O)O; γGlu = O=C(O)[C@H](CCC(=O)[*:2])N[*:1]; αMeY = C[C@](N)(Cc1ccc(O)cc1)C(=O)O; αMeL = CC(C)C[C@](C)(N)C(=O)O; Orn = NCCC[C@H](N)C(=O)O; AEEA = NCCOCCOCC(=O)O; Aib = CC(C)(N)C(=O)O

Experiments:
Format in all cases: cell-based
[1] = biological target: T1, hGIPR (Homo sapiens, UniProt P48546); experiment: Functional cAMP formation (HTRF) in HEK-293 clonal cells expressing hGIPR, 0.1% bovine casein, without or with 1.0% human serum albumin; conditions: for Emax: percent of maximal response to GIP(1-42)NH2; for EC50: hGIPR EC50, nM (SEM, n), cAMP, 37° C.
T1 construct: expressed in transfected cells
T1 sequence (P48546 22-466): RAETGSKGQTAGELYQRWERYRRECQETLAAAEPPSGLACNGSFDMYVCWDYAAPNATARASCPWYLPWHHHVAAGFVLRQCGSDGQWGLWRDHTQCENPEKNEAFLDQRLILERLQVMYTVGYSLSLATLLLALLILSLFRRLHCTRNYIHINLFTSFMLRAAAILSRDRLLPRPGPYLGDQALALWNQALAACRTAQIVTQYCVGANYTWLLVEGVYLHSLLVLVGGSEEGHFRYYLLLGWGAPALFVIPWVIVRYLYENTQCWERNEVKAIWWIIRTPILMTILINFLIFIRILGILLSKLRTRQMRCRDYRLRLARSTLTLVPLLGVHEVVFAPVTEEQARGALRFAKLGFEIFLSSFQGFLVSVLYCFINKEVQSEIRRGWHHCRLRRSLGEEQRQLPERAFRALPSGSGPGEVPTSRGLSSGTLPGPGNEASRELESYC
In short: (§1)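 Cells were stimulated with peptide for 30 min at 37° C, then intracellular cAMP was measured by competitive HTRF (665/620 nm ratio) and converted to nM using a cAMP standard curve. Relative EC50 and Emax came from four-parameter logistic fits of percent maximal response against peptide concentration.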

[2] = biological target: T2, hGCGR (Homo sapiens, UniProt P47871); experiment: Functional cAMP formation (HTRF) in HEK-293 clonal cells expressing hGCGR, 0.1% bovine casein, without or with 1.0% human serum albumin; conditions: hGCGR EC50, nM (SEM, n), cAMP, 37° C.
T2 construct: expressed in transfected cells
T2 sequence (P47871 26-477): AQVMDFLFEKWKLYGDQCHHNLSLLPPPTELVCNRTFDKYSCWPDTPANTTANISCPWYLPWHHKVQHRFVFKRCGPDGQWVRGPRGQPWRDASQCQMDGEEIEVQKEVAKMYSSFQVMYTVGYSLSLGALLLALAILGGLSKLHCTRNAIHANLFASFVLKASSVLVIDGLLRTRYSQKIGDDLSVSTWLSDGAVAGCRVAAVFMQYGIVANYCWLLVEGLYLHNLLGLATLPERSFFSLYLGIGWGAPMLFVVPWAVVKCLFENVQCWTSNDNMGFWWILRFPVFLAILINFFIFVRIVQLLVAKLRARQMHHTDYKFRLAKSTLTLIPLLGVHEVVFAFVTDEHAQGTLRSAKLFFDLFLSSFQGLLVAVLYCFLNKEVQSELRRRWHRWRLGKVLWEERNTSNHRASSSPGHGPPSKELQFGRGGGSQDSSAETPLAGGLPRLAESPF
In short: as §1

[3] = biological target: hGLP-1R (Homo sapiens, UniProt P43220); experiment: Functional cAMP formation (HTRF) in HEK-293 clonal cells expressing hGLP-1R, 0.1% bovine casein, without or with 1.0% human serum albumin; parameters: expressed in transfected cells; conditions: for EC50: hGLP-1R EC50, nM (SEM, n), cAMP, 37° C., 0.1% bovine casein (no human serum albumin), geometric mean; for Emax: HEK293, read-out: hGLP-1R Emax, % ± SEM, cAMP, 37° C., 0.1% bovine casein and 1.0% human serum albumin, percent of maximal response to GLP-1(7-36)NH2
Sequence of hGLP-1R (P43220 24-463): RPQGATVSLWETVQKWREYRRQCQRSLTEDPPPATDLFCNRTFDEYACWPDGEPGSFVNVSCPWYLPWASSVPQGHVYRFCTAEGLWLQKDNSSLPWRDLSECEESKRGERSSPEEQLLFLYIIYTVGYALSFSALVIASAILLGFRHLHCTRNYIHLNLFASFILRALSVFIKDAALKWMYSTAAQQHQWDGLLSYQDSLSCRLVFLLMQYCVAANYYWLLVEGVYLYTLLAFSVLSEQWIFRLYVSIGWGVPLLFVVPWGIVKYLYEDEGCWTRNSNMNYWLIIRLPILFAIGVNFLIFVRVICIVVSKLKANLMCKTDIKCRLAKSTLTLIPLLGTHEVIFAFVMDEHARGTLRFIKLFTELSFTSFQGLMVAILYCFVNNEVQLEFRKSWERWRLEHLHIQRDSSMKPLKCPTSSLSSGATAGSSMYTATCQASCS
In short: as §1

[4] = HEK293, read-out: hGIPR Emax, % ± SEM, cAMP, 37° C., 0.1% bovine casein and 1.0% human serum albumin
[5] = HEK293, read-out: hGIPR Emax, % ± SEM, cAMP, 37° C., 0.1% bovine casein, arithmetic mean
[6] = 0.1% bovine casein (no human serum albumin), geometric mean
[7] = 0.1% bovine casein and 1.0% human serum albumin, geometric mean (SEM, n)

SMILES | Emax [1, 4] [%] | Emax [1, 5] [%] | EC50 [1, 6] [nM] | EC50 [2, 6] [nM] | EC50 [2, 7] [nM] | EC50 [3] [nM] | Emax [3] [%] | EC50 [1, 7] [nM]
CC[C@H](C)[C@H](NC(=O)[C@H](CC(C)C)NC(=O)[C@](C)(Cc1ccc(O)cc1)NC(=O)[C@@H](CCC(=O)O)NC(=O)[C@@H](NC(=O)[C@H](Cc1ccccc1)NC(=O)[C@H](CCCCNC(=O)COCCOCCNC(=O)CC[C@H](NC(=O)CCCCCCCCCOc1ccc(C(=O)O)cc1)C(=O)O)NC(=O)C(C)(C)NC(=O)[C@H](CCC(N)=O)NC(=O)[C@H](C)NC(=O)[C@H](CCCCNC(=O)COCCOCCNC(=O)CC[C@H](NC(=O)CCCCCCCCCOc1ccc(C(=O)O)cc1)C(=O)O)NC(=O)[C@H](CCCN)NC(=O)[C@H](CC(=O)O)NC(=O)[C@H](CC(C)C)NC(=O)[C@](C)(CC(C)C)NC(=O)[C@@H](NC(=O)C(C)(C)NC(=O)[C@H](Cc1ccc(O)cc1)NC(=O)[C@H](CC(=O)O)NC(=O)[C@H](CO)NC(=O)[C@@H](NC(=O)[C@](C)(Cc1ccccc1F)NC(=O)[C@@H](NC(=O)CNC(=O)[C@H](CCC(=O)O)NC(=O)C(C)(C)NC(=O)[C@@H](N)Cc1ccc(O)cc1)[C@@H](C)O)[C@@H](C)O)[C@@H](C)CC)[C@@H](C)CC)C(=O)N[C@@H](CCC(=O)O)C(=O)NCC(=O)NCC(=O)N1CCC[C@H]1C(=O)N[C@@H](CO)C(=O)N[C@@H](CO)C(=O)NCC(=O)N[C@@H](C)C(=O)N1CCC[C@H]1C(=O)N1CCC[C@H]1C(=O)N1CCC[C@H]1C(=O)N[C@@H](CO)C(N)=O [Example 372] | 90.6 | 97.3 | 0.0112 | > 9950 | > 9950 | 0.291 | – | –
CC[C@H](C)[C@H](NC(=O)[C@H](CC(C)C)NC(=O)[C@](C)(Cc1ccc(O)cc1)NC(=O)[C@@H](CCC(=O)O)NC(=O)[C@@H](NC(=O)[C@H](Cc1ccccc1)NC(=O)[C@H](CCC(=O)O)NC(=O)C(C)(C)NC(=O)[C@H](CCC(N)=O)NC(=O)[C@H](C)NC(=O)[C@H](CCCCNC(=O)COCCOCCNC(=O)CC[C@H](NC(=O)CCCCCCCCCOc1ccc(C(=O)O)cc1)C(=O)O)NC(=O)[C@H](CCCN)NC(=O)[C@H](CC(=O)O)NC(=O)[C@H](CC(C)C)NC(=O)[C@](C)(CC(C)C)NC(=O)[C@@H](NC(=O)C(C)(C)NC(=O)[C@H](Cc1ccc(O)cc1)NC(=O)[C@H](CC(=O)O)NC(=O)[C@H](CO)NC(=O)[C@@H](NC(=O)[C@](C)(Cc1ccccc1F)NC(=O)[C@@H](NC(=O)CNC(=O)[C@H](CCC(=O)O)NC(=O)C(C)(C)NC(=O)[C@@H](N)Cc1ccc(O)cc1)[C@@H](C)O)[C@@H](C)O)[C@@H](C)CC)[C@@H](C)CC)C(=O)N[C@@H](CCCCNC(=O)COCCOCCNC(=O)CC[C@H](NC(=O)CCCCCCCCCOc1ccc(C(=O)O)cc1)C(=O)O)C(=O)NCC(=O)NCC(=O)N1CCC[C@H]1C(=O)N[C@@H](CO)C(=O)N[C@@H](CO)C(=O)NCC(=O)N[C@@H](C)C(=O)N1CCC[C@H]1C(=O)N1CCC[C@H]1C(=O)N1CCC[C@H]1C(=O)N[C@@H](CO)C(N)=O [Example 373] | 82.4 | – | 0.0152 | > 9950 | > 9950 | 0.329 | 112 | –
CC[C@H](C)[C@H](NC(=O)[C@H](CC(C)C)NC(=O)[C@](C)(Cc1ccc(O)cc1)NC(=O)[C@@H](CCC(=O)O)NC(=O)[C@@H](NC(=O)[C@H](Cc1ccccc1)NC(=O)[C@H](CCC(=O)O)NC(=O)C(C)(C)NC(=O)[C@H](CCC(N)=O)NC(=O)[C@H](C)NC(=O)[C@H](CCCCNC(=O)COCCOCCNC(=O)CC[C@H](NC(=O)CCCCCCCCCOc1ccc(C(=O)O)cc1)C(=O)O)NC(=O)[C@H](CCCN)NC(=O)[C@H](CC(=O)O)NC(=O)[C@H](CC(C)C)NC(=O)[C@](C)(CC(C)C)NC(=O)[C@@H](NC(=O)C(C)(C)NC(=O)[C@H](Cc1ccc(O)cc1)NC(=O)[C@H](CC(=O)O)NC(=O)[C@H](CO)NC(=O)[C@@H](NC(=O)[C@](C)(Cc1ccccc1F)NC(=O)[C@@H](NC(=O)CNC(=O)[C@H](CCC(=O)O)NC(=O)C(C)(C)NC(=O)[C@@H](N)Cc1ccc(O)cc1)[C@@H](C)O)[C@@H](C)O)[C@@H](C)CC)[C@@H](C)CC)C(=O)N[C@@H](CCC(=O)O)C(=O)NCC(=O)NCC(=O)N1CCC[C@H]1C(=O)N[C@@H](CO)C(=O)N[C@@H](CO)C(=O)NCC(=O)N[C@@H](C)C(=O)N1CCC[C@H]1C(=O)N1CCC[C@H]1C(=O)N1CCC[C@H]1C(=O)N[C@@H](CO)C(=O)N[C@@H](CCCCNC(=O)COCCOCCNC(=O)CC[C@H](NC(=O)CCCCCCCCCOc1ccc(C(=O)O)cc1)C(=O)O)C(N)=O [Example 374] | 88.8 | 96.2 | 0.0135 | > 9950 | > 9950 | 0.269 | – | –
CC[C@H](C)[C@H](NC(=O)[C@H](CCCN)NC(=O)[C@H](CC(=O)O)NC(=O)[C@H](CC(C)C)NC(=O)[C@](C)(CC(C)C)NC(=O)[C@@H](NC(=O)C(C)(C)NC(=O)[C@H](Cc1ccc(O)cc1)NC(=O)[C@H](CC(=O)O)NC(=O)[C@H](CO)NC(=O)[C@@H](NC(=O)[C@](C)(Cc1ccccc1F)NC(=O)[C@@H](NC(=O)CNC(=O)[C@H](CCC(=O)O)NC(=O)C(C)(C)NC(=O)[C@@H](N)Cc1ccc(O)cc1)[C@@H](C)O)[C@@H](C)O)[C@@H](C)CC)C(=O)N[C@@H](C)C(=O)N[C@@H](CCC(N)=O)C(=O)NC(C)(C)C(=O)N[C@@H](CCC(=O)O)C(=O)N[C@@H](Cc1ccccc1)C(=O)N[C@H](C(=O)N[C@@H](CCCCNC(=O)COCCOCCNC(=O)CC[C@H](NC(=O)CCCCCCCCCOc1ccc(C(=O)O)cc1)C(=O)O)C(=O)N[C@@](C)(Cc1ccc(O)cc1)C(=O)N[C@@H](CC(C)C)C(=O)N[C@H](C(=O)N[C@@H](CCCCNC(=O)COCCOCCNC(=O)CC[C@H](NC(=O)CCCCCCCCCOc1ccc(C(=O)O)cc1)C(=O)O)C(=O)NCC(=O)NCC(=O)N1CCC[C@H]1C(=O)N[C@@H](CO)C(=O)N[C@@H](CO)C(=O)NCC(=O)N[C@@H](C)C(=O)N1CCC[C@H]1C(=O)N1CCC[C@H]1C(=O)N1CCC[C@H]1C(=O)N[C@@H](CO)C(N)=O)[C@@H](C)CC)[C@@H](C)CC [Example 375] | 85.4 | 100 | 0.0566 | > 9950 | > 9950 | 1.11 | 113 | 4.68
CC[C@H](C)[C@H](NC(=O)[C@H](CCCN)NC(=O)[C@H](CC(=O)O)NC(=O)[C@H](CC(C)C)NC(=O)[C@](C)(CC(C)C)NC(=O)[C@@H](NC(=O)C(C)(C)NC(=O)[C@H](Cc1ccc(O)cc1)NC(=O)[C@H](CC(=O)O)NC(=O)[C@H](CO)NC(=O)[C@@H](NC(=O)[C@](C)(Cc1ccccc1F)NC(=O)[C@@H](NC(=O)CNC(=O)[C@H](CCC(=O)O)NC(=O)C(C)(C)NC(=O)[C@@H](N)Cc1ccc(O)cc1)[C@@H](C)O)[C@@H](C)O)[C@@H](C)CC)C(=O)N[C@@H](C)C(=O)N[C@@H](CCC(N)=O)C(=O)NC(C)(C)C(=O)N[C@@H](CCCCNC(=O)COCCOCCNC(=O)CC[C@H](NC(=O)CCCCCCCCCOc1ccc(C(=O)O)cc1)C(=O)O)C(=O)N[C@@H](Cc1ccccc1)C(=O)N[C@H](C(=O)N[C@H](CCC(=O)O)C(=O)N[C@@](C)(Cc1ccc(O)cc1)C(=O)N[C@@H](CC(C)C)C(=O)N[C@H](C(=O)N[C@@H](CCCCNC(=O)COCCOCCNC(=O)CC[C@H](NC(=O)CCCCCCCCCOc1ccc(C(=O)O)cc1)C(=O)O)C(=O)NCC(=O)NCC(=O)N1CCC[C@H]1C(=O)N[C@@H](CO)C(=O)N[C@@H](CO)C(=O)NCC(=O)N[C@@H](C)C(=O)N1CCC[C@H]1C(=O)N1CCC[C@H]1C(=O)N1CCC[C@H]1C(=O)N[C@@H](CO)C(N)=O)[C@@H](C)CC)[C@@H](C)CC [Example 376] (H-Y[Aib]EGT[αMePhe(2-F)]TSDY[Aib]I[αMeL]LD[Orn]IAQ[Aib]K([AEEA-γGlu-Decanoyl(10-(4-HOOC-PhO))])FI[dE][αMeY]LIK([AEEA-γGlu-Decanoyl(10-(4-HOOC-PhO))])GGPSSGAPPPS-NH2) | 88.3 | – | 0.0281 | > 9950 | > 9950 | 0.539 | 121 | –
